According to publication PMC11960442, “In vitro activities of lipopeptides against fluconazole-resistant Candida auris” (Microbiology Spectrum, 2025):
In brackets after ≈: the same amount, converted by molar mass. Read-outs that look alike come from different tables or passages of the source. Non-standard residues stand in square brackets, D forms with d. Residues, ends and D or L forms follow the SMILES beside them. *: point of attachment. Myristoyl = CCCCCCCCCCCCCC(=O)*; Nle = CCCC[C@H](N)C(=O)O

How the values were obtained:
[1] = system: fluconazole-resistant C. auris isolates; assay: microbe, parasite or virus in culture; conditions: Candidozyma auris, EUCAST broth microdilution, RPMI 1640 with 2% glucose
[2] = system: C. auris isolates 728157, CAB-1, CAB-2; assay: Growth curves (OD450 nm every hour for 24 h); type: cell-based, Candida auris; conditions: for growth: growth curve 24 h
Procedure: Growth Curves. The action of the peptides was assessed by growth curve measuring OD450 nm every hour for 24 h using peptides at different concentrations (0.5X, 1X, 2X MIC). […] Untreated isolates were used as control. All experiments were replicated at least three times.

[3] = system: C. auris isolates 728157, CAB-1, CAB-2; assay: Time-kill experiments (CFU counts), peptides combined with fluconazole; type: cell-based, Candida auris; conditions: for interaction with fluconazole in time-kill: fluconazole 128 mg/L with 0.5X and 1X MIC of peptide, interpreted by White et al.; for log difference compared to single administration, time-kill: C. auris CAB-1
C. auris = assay: Stability of compounds: MIC after pre-incubation of the peptides; type: cell-based, Candida auris; conditions: peptides previously incubated for 24 and 48 hours at 37°C; no changes in MIC values
Procedure: Determination of MICs. […] The media used for this assay was RPMI 1640 with 2% of glucose and the concentration of antifungal and peptides tested ranged from 128 to 0.25 mg/l.
Stability of compounds The peptides were incubated at 37°C for 24 and 48 hours. They were then used to perform MIC determination as previously described.

[4] = system: fluconazole-resistant C. auris isolates; conditions: for MIC: EUCAST broth microdilution, RPMI 1640 with 2% glucose; for MIC values: the six C. auris isolates
[5] = isolate 728157 (clade I, ERG11 K143R)
[6] = isolate CAB-1 (clade I, ERG11 Y132F)
[7] = isolate CAB-2 (clade I, ERG11 Y132F)
[8] = isolate CAB-3 (clade I, ERG11 Y132F)
[9] = isolate CAB-4 (clade I, ERG11 Y132F)
[10] = isolate CAB-5 (clade I, ERG11 Y132F)
[11] = C. auris 728157, all the concentrations (0.5X, 1X, 2X MIC)
[12] = C. auris 728157, peptide at 0.5X MIC
[13] = C. auris 728157, peptide at 1X and 2X MIC
[14] = C. auris CAB-1, peptide at 1X and 2X MIC
[15] = C. auris CAB-2, peptide at 1X MIC
[16] = C. auris CAB-2, peptide at 2X MIC
[17] = fluconazole combined with 0.5X MIC of peptide, after 12 hours
[18] = C. auris CAB-2, fluconazole combined with 0.5X MIC of peptide, after 12 hours

Row | Molecule | MIC [1, 5] [mg/L] | MIC [1, 6] [mg/L] | MIC [1, 10] [mg/L] | hours of treatment after which P <0.05 compared to control (growth curve) [2, 11] [h] | delay of the start of growth compared to the control [2, 12] [h] | growth [2, 13] | growth [2, 14] | delay of the start of growth compared to the control [2, 15] [h] | growth [2, 16] | interaction with fluconazole in time-kill ([3]; C. auris 728157) | log difference compared to single administration, time-kill [3, 17] [log] | log difference, time-kill [3, 18] [log] | MIC after pre-incubation of the peptide (stability) (C. auris) [mg/L] | MIC [4, 5] [mg/L] | MIC [4, 6] [mg/L] | MIC [4, 7] [mg/L] | MIC [4, 8] [mg/L] | MIC [4, 9] [mg/L] | MIC [4, 10] [mg/L] | MIC values [4] [mg/L] | other results
1 | C[C@@H]1[C@H](O)[C@@H](C)/C=C/C=C/C=C/C=C/C=C/C=C/C=C/[C@H](O[C@@H]2O[C@H](C)[C@@H](O)[C@H](N)[C@@H]2O)C[C@@H]2O[C@](O)(C[C@@H](O)C[C@@H](O)[C@H](O)CC[C@@H](O)C[C@@H](O)CC(=O)O[C@H]1C)C[C@H](O)[C@H]2C(=O)O [AMB, amphotericin] | 0.5 (≈ 0.541 µM) | 1 (≈ 1.08 µM) | 1 (≈ 1.08 µM) | – | – | – | – | – | – | – | – | – | – | – | – | – | – | – | – | – | MIC [1, 7]: 1 mg/L (≈ 1.08 µM); MIC [1, 8]: 1 mg/L (≈ 1.08 µM); MIC [1, 9]: 1 mg/L (≈ 1.08 µM)
2 | OC(Cn1cncn1)(Cn1cncn1)c1ccc(F)cc1F [FLU, fluconazole] | > 128 | 64 (≈ 209 µM) | 64 (≈ 209 µM) | – | – | – | – | – | – | – | – | – | – | – | – | – | – | – | – | – | –
3 | CCCCCCCCCCCCCC(=O)N[C@@H](CCCC)C(=O)N[C@@H](CCCNC(=N)N)C(=O)N[C@@H](CCCNC(=N)N)C(N)=O [NeI, C14-NleRR-NH2] (Myristoyl-[Nle]-Arg-Arg-NH2) | – | – | – | 8 | 16 | completely inhibited | completely inhibited | 14 | completely inhibited | synergistic effect | 2.19 | 1.19 | 8 | 8 (≈ 12.3 µM) | 8 (≈ 12.3 µM) | 8 (≈ 12.3 µM) | 8 (≈ 12.3 µM) | 8 (≈ 12.3 µM) | 8 (≈ 12.3 µM) | 8 | hours of treatment after which P <0.05 compared to control (growth curve) ([2]; C. auris CAB-1, 1X and 2X MIC concentrations): 8 h; hours of treatment after which P <0.05 compared to control (growth curve) ([2]; C. auris CAB-2, 1X and 2X MIC concentrations): 7 h; log difference, time-kill ([3]; C. auris 728157, fluconazole (128 mg/L) in combination with 0.5X and 1X MIC of peptide, at 32 hours): 3.10 log; log difference, time-kill ([3]; C. auris 728157, fluconazole (128 mg/L) in combination with 0.5X and 1X MIC of peptide, at 48 hours): 3.53 log; MIC values ([4]; 8 mg/L expressed in µM): 9 µM
4 | CCCCCCCCCCCCCC(=O)N[C@@H](Cc1c[nH]c2ccccc12)C(=O)N[C@@H](CCCNC(=N)N)C(=O)N[C@@H](CCCNC(=N)N)C(N)=O [WR, C14-WRR-NH2] (Myristoyl-Trp-Arg-Arg-NH2) | – | – | – | 9 | 22 | completely inhibited | completely inhibited | 16 | completely inhibited | additive effect | 2.96 | 1.69 | 8 | 8 (≈ 11 µM) | 8 (≈ 11 µM) | 8 (≈ 11 µM) | 8 (≈ 11 µM) | 8 (≈ 11 µM) | 8 (≈ 11 µM) | 8 | hours of treatment after which P <0.05 compared to control (growth curve) ([2]; C. auris CAB-1, all the concentrations (0.5X, 1X, 2X MIC)): 9 h; hours of treatment after which P <0.05 compared to control (growth curve) ([2]; C. auris CAB-2, all the concentrations (0.5X, 1X, 2X MIC)): 8 h; growth after 24 hours compared to the control ([2]; peptide at 0.5X MIC, ANOVA, P <0.05): statistically significant reduction of growth; MIC values ([4]; 8 mg/L expressed in µM): 8.4 µM
5 | anidulafungin [reference compound] | – | – | – | – | – | – | – | – | – | – | – | – | – | 0.25 | 0.5 | 0.25 | 0.25 | 0.25 | 0.25 | – | –
